Results on 90 compounds are retold here after a melting point compilation (Tetko et al.; mined from patent text by program, amines drawn as free bases though some values may be those of a salt).

As to `COC(=O)c1c(C2=NC(C)(C(C)C)C(=O)N2)cccc1[N+](=O)[O-]` (stereo not given), the melting point – broadly, the temperature, or range, at which the solid turns liquid – was 159 to 162 °C.

Compound `COc1cc2c(c3ccccc13)Nc1ccccc1S2` gave a melting point of 168 to 170 °C.

With `ON=C(Cn1ccnc1)c1ccc(Cl)cc1Cl`, the melting point was in the range of 205 to 206 °C.

For `Cc1c(I)sc(I)c1Br`, the melting point is 81 to 82 °C.

`COc1ccc(N=Nc2ccc(O)c(C(=O)Nc3ccc4[nH]ncc4c3)c2)cc1` registered a melting point of 276 to 277 °C.

`COC(=O)c1ccc(C(N)=O)cc1Cl`: the melting point was in the range of 154 to 156 °C.

In turn, `COC1CCN(c2ccn3nc(-c4ccccc4)c(-c4ccc(=O)n(C(C)C)n4)c3c2)CC1` displayed a melting point of 177 to 178 °C.

Take `COc1ccc(S(=O)(=O)C2(C(=O)O)CCCN(Cc3ccccc3)C2)cc1` (stereo not given): the melting point came to 133 °C.

`CC(=O)N(O)Cc1ccc(OCCN(C)c2nc3ccccc3o2)cc1` came in with a melting point of 135 to 136 °C.

The compound `Cc1nc2n(c(=O)c1CCN1CCC(C(=NO)c3ccc(F)cc3F)CC1)CCCC2` returned a melting point of 180 to 183 °C.

The compound `CCN(CC)C(=O)CCCN(C(=O)Nc1cc(OC)cc(C(C)(C)C)c1O)c1ccccc1` came in with a melting point of 131 to 133 °C.

Regarding `CC(=O)c1cccc(-c2ccc3nc(-c4ccc(Cl)cc4)cn3c2)c1`, the melting point lay within 173 to 175 °C.

Consider `COC(=O)C(c1ccc(Cl)cc1)(c1ccc(Cl)cc1)c1ncc[nH]1`, for which the melting point was found to be 132 °C.

Consider `Nc1ncnc2c1ncn2OC(CO)COCP(=O)(O)O` (stereo not given), for which the melting point is 222 to 225 °C.

On to `O=c1[nH]c(CCl)c(Br)c(=O)[nH]1`, for which the melting point was found to be 245 °C.

`CS(=O)(=O)c1ccc(-c2nn3ccoc3c2-c2ccc(F)cc2)cc1` displayed a melting point of 67 to 70 °C.

Compound `CS(=O)(=O)Nc1ccc([C@@H]2CCC(=O)O2)cc1` showed a melting point of 101 to 102 °C.

In turn, `CCCn1c(=O)c(/C=C/C(=O)OCC)c2n(c1=O)CCS2` showed a melting point of 140 to 141 °C.

Compound `Nc1nc(-c2ccc(Cl)cc2)c(CCC(=O)O)s1` yielded a melting point of 116 to 118 °C.

Consider `OCc1cnc2ccc(Cl)cc2c1O`, for which the melting point was > 300 °C.

In turn, `COc1ccc(CNC(=O)C(=O)NCCc2cccs2)c(OC)c1` displayed a melting point of 146 to 147 °C.

With `C[C@]1(O)CCCC[C@H]1n1cnc(C(=O)N2CCNC[C@H]2Cc2ccccc2)c1-c1ccccc1`, the melting point turned out to be 191 °C.

`O=C1NCc2ccsc21` registered a melting point of 104 to 105 °C.

In the case of `N#Cc1c(O)csc1N1CCOCC1`, the melting point is 191 °C.

The compound `CCC1N=C(c2ccccc2Cl)c2cc(CC(=O)OC)sc2-n2c(C)nnc21` (stereo not given) came in with a melting point of 134 to 137 °C.

For `OC1CCCNC1CN1CCCC1` (stereo not given), the melting point lay within 45 to 50 °C.

On to `Nc1c2c(nc3ccc(Cl)cc13)CCCC2=O`, for which the melting point is > 260 °C.

For the compound `Cn1cccc1C(=O)NCc1cccc2c1C(=O)N(C1CCC(=O)NC1=O)C2=O` (stereo not given), the melting point was > 260 °C.

As to `CN(C)Cc1ccc(-c2cc3c(Nc4ccc(OCc5ccccc5)cc4)ncnc3[nH]2)cc1`, the melting point fell in the range of 272 to 274 °C.

Regarding `CCCCCC(O)CCN1C(=O)NC(=O)C1CCCCCCC(=O)O` (stereo not given), the melting point fell in the range of 63 to 65 °C.

The compound `C=CCCCOc1ccc(-c2ccc([N+](=O)[O-])cc2)cc1` registered a melting point of 74 to 76 °C.

As for `COc1ccc(-c2nc(-c3ccc4c(c3)N(C)C(=O)CS4)cs2)cc1OC`, the melting point turned out to be 144 °C.

For the compound `N#Cc1cc(N2C(=O)CC(C(F)(F)F)CC2=O)c(F)cc1Cl`, the melting point was in the range of 210 to 212 °C.

In the case of `O=C(c1cccc2cc[nH]c12)N1CCN(c2ccc(F)cc2)CC1`, the melting point is 222 to 224 °C.

`CC(C)(C)OC(=O)NC(Cc1cc(C(=O)c2cc(C(F)(F)F)cc(C(F)(F)F)c2)ccc1N)C(=O)OC(C)(C)C` (stereo not given) showed a melting point of 134 to 135 °C.

`CC(C)NC(=O)c1cc2ncn(C)c2c(Cl)c1NC(=O)c1cc(C(F)(F)F)nn1-c1ncccc1Cl`: the melting point fell in the range of 150 to 155 °C.

`COCc1nn(-c2cccc(NC(C)=O)c2)c(=O)n(Cc2ccc(Cl)cc2)c1=O` displayed a melting point of 97 °C.

Turning to `CC(C)n1nc(-c2c(OCC(N)=O)nc(N)nc2-c2ccccc2)ccc1=O`, the melting point lay within 257 to 261 °C.

Regarding `CC(C)(C)OC(=O)NCc1cccc(C=CC(=O)O)c1`, the melting point was 121 to 123 °C.

Compound `O=C=Nc1cc(NS(=O)(=O)CCl)c(Cl)cc1F` showed a melting point of 102 °C.

On to `Clc1cc2c(nn1)-c1ccccc1OC2`, for which the melting point stood at 208 °C.

For the compound `O=C(CC(=S)N1CCC[C@H]1C(=O)O)c1ccccc1`, the melting point is 151 to 152 °C.

In the case of `O=C(O)c1cccc(OC(F)(F)C(F)Cl)c1` (stereo not given), the melting point was 79 to 85 °C.

`O=[N+]([O-])c1ccc(/C=C/c2c(F)cccc2F)cc1` registered a melting point of 136 to 137 °C.

In the case of `CN1C(=O)C(Br)=C(c2cn(C(=O)OC(C)(C)C)c3ccc(OCc4ccccc4)cc23)C1=O`, the melting point is 155 °C.

Turning to `Cc1nnc(NCCN2CCC(Nc3nc4ccccc4n3Cc3ccc(F)cc3)CC2)s1`, the melting point came to 191 °C.

`Cc1c(Cl)csc1-c1nc(-c2c(F)cccc2Cl)nn1C`: the melting point lay within 117 to 118 °C.

With `Cc1cccc(CN2CCC(c3cc(-c4ccc(Cl)cc4)[nH]n3)CC2)c1`, the melting point lay in the range of 119 to 120 °C.

For `C#CCOc1ccc2c(c1)c(-c1ccc(C(C)C)cc1)nc(=O)n2Cc1cccc(O)c1`, the melting point came out at 230 °C.

For the compound `CCOC(=O)C(Cc1cccc2cccnc12)(NC=O)C(=O)OCC`, the melting point was in the range of 120 to 122 °C.

Compound `O=CCCN1CCc2cc(Br)ccc2C1=O` returned a melting point of 93 to 94 °C.

In turn, `CCCCCCCNC(=O)Oc1ccc2c(c1)N(Cc1ccccc1)CCC2` had a melting point of 50 °C.

For the compound `COc1cc(/C=C2/C(C)=C(CC(=O)O)c3cc(F)ccc32)cc(Br)c1OC`, the melting point worked out at 164 °C.

As to `COc1ccc(S(=O)(=O)C(C/C=C(\C)CCC=C(C)C)(Cc2ccc(OCCN3CCOCC3)cc2)C(=O)NO)cc1` (stereo not given), the melting point is 61 °C.

Compound `O=S(=O)(CCS(=O)(=O)c1nc(-c2ccc(F)cc2)c(-c2ccc(F)cc2)[nH]1)c1nc(-c2ccc(F)cc2)c(-c2ccc(F)cc2)[nH]1` showed a melting point of 246 to 248 °C.

The compound `NC(=O)c1c(Cl)cc(Cl)c(C(=O)O)c1Cl` displayed a melting point of 280 °C.

Regarding `CC1(C)Oc2ccc(C#N)cc2C(Oc2ccncn2)C1(C)O` (stereo not given), the melting point was 103 to 105 °C.

In the case of `Cc1ncc(CCCOc2c(C)cc(C#N)cc2C)s1`, the melting point is 64 to 66 °C.

Turning to `CC(C)Oc1ccc(/C=C(\NC(=O)c2ccc(OCCC3C=CCC3)cc2)C(=O)NCCO)cc1` (stereo not given), the melting point was in the range of 67 to 70 °C.

As to `Cc1cccc(-c2cc(C(F)(F)F)n3ncc(C#N)c3n2)c1`, the melting point was determined as 202 °C.

As for `CC(C)(C)NCc1cc(Br)cc(Br)c1O`, the melting point lay within 173 to 175 °C.

`CCCC(=O)N(Cc1cccc2c1S(=O)(=O)N=C2C1=C(O)C(C(C)(C)C)N(Cc2ccc(F)c(C)c2)C1=O)S(C)(=O)=O` (stereo not given): the melting point worked out at 226 °C.

Compound `Nc1cnccc1-c1ccc(Cl)cc1` displayed a melting point of 144 to 146 °C.

The compound `C#CC[C@@H](NCCCN1C(=O)c2ccccc2C1=O)c1nc2cc(Cl)ccc2c(=O)n1Nc1ccccc1` gave a melting point of 78 to 80 °C.

Take `COC(=O)C(CNC(C)=O)c1cccc2ccc(OC)cc12` (stereo not given): the melting point is 118 to 120 °C.

For the compound `C=C(C#N)C(=O)NCCCc1ccccc1`, the melting point is 83 °C.

With `COc1ccc(C2CCCN2S(=O)(=O)c2ccc(C)cc2)cc1` (racemic), the melting point worked out at 122 °C.

Compound `C(=CCON(c1ccccc1)c1ccccc1)CON(c1ccccc1)c1ccccc1` showed a melting point of 74 to 76 °C.

Compound `COC(=O)C(=O)Nc1ccc2c3c(n(CCCNC(=O)OC(C)(C)C)c(=O)c2c1)-c1ccccc1C3=O` returned a melting point of 157 to 159 °C.

Turning to `C=CCn1c(=O)c2c(nc(/C=C/c3cc(OC)c(OC(=O)c4ccccc4)c(OC)c3)n2C)n(CC=C)c1=O`, the melting point was 179 to 180 °C.

Turning to `N=C(N)Nc1nc2ccc(C(F)(F)F)cc2[nH]1`, the melting point was in the range of 206 to 209 °C.

In the case of `COCCOC(=O)CCc1cc(C(C)(C)C)c(O)c(C(C)(C)C)c1`, the melting point lay in the range of 62 to 64 °C.

Turning to `COC1CCN(S(=O)(=O)c2ccc([N+](=O)[O-])cc2C(F)(F)F)CC1`, the melting point was in the range of 141 to 143 °C.

`O=C(c1ccc(O)cc1)c1cccc2[nH]ccc12` returned a melting point of 177 °C.

`COC(=O)COc1ccc2cc(-c3cnc(Cc4ccccc4)o3)ccc2c1` came in with a melting point of 236 to 238 °C.

`COCCOC(=O)c1c(F)cccc1S(=O)(=O)NC(=O)Nc1nc(OC)nc(OC)n1` gave a melting point of 179 to 182 °C.

In turn, `O=[N+]([O-])c1ccc(Cn2c(-c3ccc4c(c3)OCO4)nc3ccccc32)cc1` registered a melting point of 172 to 174 °C.

For `CC(=NNC(N)=O)c1ccc2nnn(Cc3ccc4ncccc4c3)c2n1`, the melting point is 249 to 250 °C.

`CCOC(=O)COc1ccc(Oc2ccc3cc(Cl)ccc3n2)cc1` showed a melting point of 95 °C.

For the compound `CCCCCCCCCCCCCCCCSCC(CNS(=O)(=O)CCCI)NC(=O)OCCCC` (stereo not given), the melting point lay in the range of 82 to 83 °C.

Compound `O=C(NCCC(=O)N1CCCC1)c1ccc(-c2ccc3nnn(Cc4ccc5ncccc5c4)c3n2)cc1F` had a melting point of 151 to 153 °C.

On to `CCOC(=O)c1cc(S)n2c(C)nnc2n1`, for which the melting point fell in the range of 206 to 208 °C.

As for `CCOC(=O)C(Cc1c[nH]c2c(Cl)cccc12)(NC=O)C(=O)OCC`, the melting point lay in the range of 159 to 162 °C.

Turning to `COc1cccc2c1CCC(C#N)C2O` (stereo not given), the melting point was 96 to 98 °C.

For `Cn1c(=O)nc(-c2ccccc2)c2ccsc21`, the melting point was in the range of 256 to 258 °C.

For the compound `COc1ccccc1OCC(=O)NCCO[N+](=O)[O-]`, the melting point was 63 to 64 °C.

Regarding `O=S1(=O)NC2CCCN2c2ccc(Oc3ccc(Cc4nnn[nH]4)cc3)cc21` (stereo not given), the melting point lay in the range of 209 to 212 °C.

In the case of `O=C1c2ccccc2C(=O)N1OCC=Cc1ccc(Br)cc1`, the melting point is 161 to 162 °C.

Compound `O=C(O)CC(CC(=O)Nc1cc(O)c(Cl)cc1F)C(F)(F)F` (stereo not given) had a melting point of 171 to 174 °C.

As for `O=S(=O)(O)c1ccc(Nc2ccnc3cc(Cl)ccc23)cc1Cl`, the melting point was in the range of 280 to 285 °C.
